Publication PMC2760403 (The Journal of organic chemistry, 2009)

Assays:
[1] = target: M. tuberculosis Lumazine Synthase (Mycobacterium tuberculosis, UniProt P9WHE9); assay type: biochemical; conditions: recombinant M. tuberculosis LS; for kcat (rate constant ES → E + P): fit of the compound's data set; for kcat (rate constant ES → E + P) / Kis (inhibitor dissociation constant, ES + I ⇌ ESI): pH 7.0; for Kis (inhibitor dissociation constant, ES + I ⇌ ESI): substrate 1 varied, 2 constant
[2] = target: T1, S. pombe Lumazine Synthase (Schizosaccharomyces pombe, UniProt Q9UUB1); assay: Lumazine synthase kinetic inhibition assay; assay type: biochemical; conditions: recombinant S. pombe LS; for kcat (rate constant ES → E + P): fit of the compound's data set; for kcat (rate constant ES → E + P) / Kis (inhibitor dissociation constant, ES + I ⇌ ESI): pH 7.0; for Kis (inhibitor dissociation constant, ES + I ⇌ ESI): substrate 1 varied, 2 constant
T1 sequence (Q9UUB1 1-159): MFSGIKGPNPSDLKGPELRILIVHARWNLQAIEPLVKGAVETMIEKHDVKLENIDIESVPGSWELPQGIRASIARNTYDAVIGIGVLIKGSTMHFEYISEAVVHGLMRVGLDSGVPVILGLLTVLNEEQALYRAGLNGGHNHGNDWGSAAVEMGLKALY

M. tuberculosis Lumazine Synthase, sequence (P9WHE9 whole entry): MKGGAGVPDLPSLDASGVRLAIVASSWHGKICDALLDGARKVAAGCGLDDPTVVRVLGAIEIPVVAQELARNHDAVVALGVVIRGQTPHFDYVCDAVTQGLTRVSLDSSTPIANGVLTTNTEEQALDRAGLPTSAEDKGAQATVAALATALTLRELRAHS

Row | Structure (SMILES) | Mode of inhibition [1] | kcat (rate constant ES → E + P) [1] [min⁻¹] | Kis (inhibitor dissociation constant, ES + I ⇌ ESI) [1] [µM] | Mode of inhibition [2] | kcat (rate constant ES → E + P) [2] [min⁻¹] | Kis (inhibitor dissociation constant, ES + I ⇌ ESI) [2] [µM]
1 | COc1ccc([N+](=O)[O-])cc1/C=C/c1[nH]c(=O)[nH]c(=O)c1[N+](=O)[O-] [Compound 34, (E)-6-(2-Methoxy-5-nitrostyryl)-5-nitropyrimidine-2,4(1H,3H)-dione] | Mixed | 0.38 ± 0.01 | 225 ± 59 | Mixed | 1.09 ± 0.02 | 682 ± 409
2 | O=C1OC(Cc2[nH]c(=O)[nH]c(=O)c2[N+](=O)[O-])c2ccccc21 (stereo not drawn) [Compound 49, 5-Nitro-6-[(3-oxo-1,3-dihydroisobenzofuran-1-yl)methyl]pyrimidine-2,4-(1H,3H)-dione] | – | – | – | Uncompetitive | 1.12 ± 0.02 | 154 ± 13
3 | O=C(O)c1ccc(/C=C/c2[nH]c(=O)[nH]c(=O)c2[N+](=O)[O-])cc1 [Compound 27, (E)-4-(2-(5-Nitro-2,6-dioxo-1,2,3,6-tetrahydropyrimidine-4-yl)vinyl)benzoic Acid] | Partial | 0.353 ± 0.004 | 78 ± 38 | Mixed | 1.39 ± 0.03 | 187 ± 43
4 | O=c1[nH]c(C=Cc2ccccc2)c([N+](=O)[O-])c(=O)[nH]1 [Compound 39, 5-Nitro-6-styryluracil] | Partial | – | 15 ± 4 | Competitive | 2.2 ± 0.1 | –
5 | O=c1[nH]c(NCc2ccccc2O)c([N+](=O)[O-])c(=O)[nH]1 [Compound 46, 6-(2-Hydroxybenzylamino)-5-nitropyrimidine-2,4(1H,3H)-dione] | Uncompetitive | 0.62 ± 0.02 | 904 ± 193 | – | – | –
6 | O=c1[nH]c(/C=C/c2ccccc2[N+](=O)[O-])c([N+](=O)[O-])c(=O)[nH]1 [Compound 14, (E)-6-(2-Nitrostyryl)-5-nitropyrimidine-2,4(1H,3H)-dione] | Partial | 0.31 ± 0.01 | 49 ± 12 | – | – | –
7 | O=C(O)c1ccc(/C=C/c2[nH]c(=O)[nH]c(=O)c2[N+](=O)[O-])c(O)c1 [Compound 37, (E)-3-Hydroxy-4-(2-(5-nitro-2,6-dioxo-1,2,3,6-tetrahydropyrimidine-4-yl)vinyl)benzoic Acid] | Mixed | 0.40 ± 0.01 | 468 ± 113 | Mixed | 1.64 ± 0.02 | 921 ± 640
8 | COc1ccc(/C=C/c2[nH]c(=O)[nH]c(=O)c2[N+](=O)[O-])c(OC)c1OC [Compound 23, (E)-6-(2,3,4-Trimethoxystyryl)-5-nitropyrimidine-2,4(1H,3H)-dione] | Mixed | 0.34 ± 0.01 | 97 ± 24 | – | – | –
9 | COc1ccccc1/C=C/c1[nH]c(=O)[nH]c(=O)c1[N+](=O)[O-] [Compound 19, (E)-6-(2-Methoxystyryl)-5-nitropyrimidine-2,4(1H,3H)-dione] | Partial | 0.322 ± 0.004 | 44 ± 10 | Mixed | 1.71 ± 0.01 | 733 ± 227
10 | O=c1[nH]c(/C=C/c2cccc([N+](=O)[O-])c2)c([N+](=O)[O-])c(=O)[nH]1 [Compound 25, (E)-5-Nitro-6-(3-nitrostyryl)pyrimidine-2,4(1H,3H)-dione] | Mixed | 0.33 ± 0.01 | 173 ± 50 | Mixed | 1.14 ± 0.02 | 496 ± 219
11 | O=c1[nH]c(NCc2ccccc2)c([N+](=O)[O-])c(=O)[nH]1 [Compound 45, 6-(Benzylamino)-5-nitropyrimidine-2,4(1H,3H)-dione] | Uncompetitive | 0.56 ± 0.01 | 823 ± 128 | – | – | –
12 | COc1ccc(/C=C/c2[nH]c(=O)[nH]c(=O)c2[N+](=O)[O-])cc1O [Compound 20, (E)-6-(3-Hydroxy-4-methoxystyryl)-5-nitropyrimidine-2,4(1H,3H)-dione] | Mixed | 0.28 ± 0.01 | 74 ± 12 | Uncompetitive | 1.41 ± 0.02 | 38 ± 2
13 | O=c1[nH]c(/C=C/c2ccc([N+](=O)[O-])cc2)c([N+](=O)[O-])c(=O)[nH]1 [Compound 26, (E)-5-Nitro-6-(4-nitrostyryl)pyrimidine-2,4(1H,3H)-dione] | Mixed | 0.45 ± 0.01 | 37 ± 17 | Partial | 1.30 ± 0.02 | 15 ± 5
14 | COc1cccc(/C=C/c2[nH]c(=O)[nH]c(=O)c2[N+](=O)[O-])c1OC [Compound 21, (E)-6-(2,3-Dimethoxystyryl)-5-nitropyrimidine-2,4(1H,3H)-dione] | Mixed | 0.33 ± 0.01 | 22 ± 6 | Competitive | 2.21 ± 0.02 | –
15 | O=c1[nH]c(/C=C/c2cccnc2)c([N+](=O)[O-])c(=O)[nH]1 [Compound 42, (E)-5-Nitro-6-(3-(pyridine-3-yl)vinyl)pyrimidine-2,4(1H,3H)-dione] | Partial | 0.42 ± 0.01 | 24 ± 10 | – | – | –
16 | COc1ccc(/C=C/c2[nH]c(=O)[nH]c(=O)c2[N+](=O)[O-])cc1OC [Compound 22, (E)-6-(3,4-Dimethoxystyryl)-5-nitropyrimidine-2,4(1H,3H)-dione] | Mixed | 0.33 ± 0.01 | 32 ± 3 | – | – | –
17 | O=c1[nH]c(/C=C/c2ccc(Cl)cc2)c([N+](=O)[O-])c(=O)[nH]1 [Compound 31, (E)-6-(4-Chlorostyryl)-5-nitropyrimidine-2,4(1H,3H)-dione] | Mixed | 0.37 ± 0.01 | 188 ± 38 | – | – | –
18 | O=c1[nH]c(/C=C/c2ccccc2F)c([N+](=O)[O-])c(=O)[nH]1 [Compound 28, (E)-6-(2-Fluorostyryl)-5-nitropyrimidine-2,4(1H,3H)-dione] | Mixed | 0.27 ± 0.01 | 13 ± 3 | – | – | –
